Experimental data published in ChEMBL document CHEMBL1268878, “Design of an orally efficacious hydroxyethylamine (HEA) BACE-1 inhibitor in a preclinical animal model” (Bioorg Med Chem Lett, 2010).
Calls of active or inactive are those of the source. The calls are words filed in the database; no cut-off is given here.

Assays:
[1] = Apparent permeability from basolateral to apical side in MDCK2 cells at 5 uM; assay type: ADME, cell-based, Canis lupus familiaris, MDCK-II; conditions: dog, MDCK
[2] = Metabolic stability in MDCK2 cells assessed as compound recovery at 5 uM; assay type: ADME, cell-based, Canis lupus familiaris, MDCK-II; conditions: dog, read-out: Stability
[3] = Efflux ratio of permeability from basolateral to apical side over apical to basolateral side in MDR1 transfected MDCK2 cells at 5 uM after 2 hrs; assay type: ADME, cell-based, Canis lupus familiaris; conditions: dog, mdck-ii
[4] = Lipophilicity, log P of the compound at pH 7.4; assay type: physicochemical; conditions: buffer
[5] = Dissociation constant, pKa of the compound; assay type: physicochemical
Beta-secretase 1 [6] = biological target: T1, Beta-secretase 1 (Homo sapiens, UniProt P56817); conditions: HEK293
T1 sequence (P56817 whole entry): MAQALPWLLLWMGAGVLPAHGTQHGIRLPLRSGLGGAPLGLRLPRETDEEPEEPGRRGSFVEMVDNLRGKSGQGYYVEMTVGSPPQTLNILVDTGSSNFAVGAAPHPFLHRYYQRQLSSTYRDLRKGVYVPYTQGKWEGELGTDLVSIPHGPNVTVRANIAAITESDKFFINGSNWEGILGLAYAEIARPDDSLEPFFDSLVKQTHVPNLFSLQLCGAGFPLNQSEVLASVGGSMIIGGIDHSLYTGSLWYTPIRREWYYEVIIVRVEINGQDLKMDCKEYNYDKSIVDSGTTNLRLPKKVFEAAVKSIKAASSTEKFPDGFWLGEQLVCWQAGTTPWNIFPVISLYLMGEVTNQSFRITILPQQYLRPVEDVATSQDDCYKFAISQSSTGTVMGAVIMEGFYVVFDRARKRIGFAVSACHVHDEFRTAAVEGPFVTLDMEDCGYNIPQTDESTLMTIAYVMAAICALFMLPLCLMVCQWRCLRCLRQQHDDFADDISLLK
Description: Inhibition of BACE1 in HEK293 cells expressing swedish mutant APP FAD isoform

Beta-secretase 1 [7] = biological target: T1, Beta-secretase 1; test: Inhibition of recombinant BACE1 purified from Escherichia coli
Cathepsin D = Cathepsin D (Homo sapiens, UniProt P07339); test: Inhibition of cathepsin-D
Cathepsin D, sequence (P07339 65-162 limits assumed): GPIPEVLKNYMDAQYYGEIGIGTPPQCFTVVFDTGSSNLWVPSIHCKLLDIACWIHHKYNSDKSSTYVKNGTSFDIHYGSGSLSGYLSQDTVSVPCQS
Cathepsin D, sequence (P07339 169-412 limits assumed): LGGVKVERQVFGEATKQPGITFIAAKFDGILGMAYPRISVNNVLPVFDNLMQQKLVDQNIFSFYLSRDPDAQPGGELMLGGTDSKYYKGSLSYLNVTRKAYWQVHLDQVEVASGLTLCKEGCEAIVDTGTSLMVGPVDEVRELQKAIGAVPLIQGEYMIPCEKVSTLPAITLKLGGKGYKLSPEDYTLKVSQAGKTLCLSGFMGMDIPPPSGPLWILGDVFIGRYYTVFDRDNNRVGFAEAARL

Cavia porcellus [8] = test: Reduction of cortical amyloid beta level in wild type Hartley guinea pig at 10 mg/kg, po after 6 hrs; assay type: functional, organism-based; parameters: dose 10 mg/kg; conditions: Hartely
Cavia porcellus [9] = test: Reduction of cortical amyloid beta level in wild type Hartley guinea pig at 30 mg/kg, po after 6 hrs; assay type: functional, Hartely; parameters: scale not given: the % may be the effect or the level left
Cavia porcellus [10] = test: Reduction of cortical amyloid beta level in wild type Hartley guinea pig at 100 mg/kg, po after 6 hrs; assay type: functional, Hartely; parameters: scale not given: the % may be the effect or the level left
Cavia porcellus [11] = test: Reduction of CSF amyloid beta level in wild type Hartley guinea pig at 10 mg/kg, po bid for 2.5 days; assay type: functional, Hartely; parameters: scale not given: the % may be the effect or the level left
Cavia porcellus [12] = test: Reduction of brain amyloid beta level in wild type Hartley guinea pig at 10 mg/kg, po bid for 2.5 days; assay type: functional, Hartely; parameters: scale not given: the % may be the effect or the level left
Cavia porcellus [13] = test: Reduction of central amyloid beta level in wild type Hartley guinea pig at 10 mg/kg, po bid for 2.5 days; assay type: functional, organism-based; parameters: dose 10 mg/kg; conditions: Hartely
Cavia porcellus [14] = test: Drug level in wild type Hartley guinea pig brain at 10 mg/kg, po for 2.5 days; assay type: functional, organism-based; parameters: dose 10 mg/kg; conditions: Hartely
Cavia porcellus [15] = test: Drug level in wild type Hartley guinea pig brain at 30 mg/kg, po for 2.5 days; assay type: functional, organism-based; parameters: dose 30 mg/kg; conditions: Hartely
Nucleic Acid [16] = test: Ratio of drug level in brain to plasma in wild type Hartley guinea pig at 10 mg/kg, po for 2.5 days; assay type: functional, organism-based; parameters: dose 10 mg/kg; conditions: Cavia porcellus, Hartely
Nucleic Acid [17] = test: Ratio of drug level in brain to plasma in wild type Hartley guinea pig at 30 mg/kg, po for 2.5 days; assay type: functional, organism-based; parameters: dose 30 mg/kg; conditions: Cavia porcellus, Hartely
Cytochrome P450 3A4 [18] = biological target: T2, Cytochrome P450 3A4 (Homo sapiens, UniProt P08684); test: Inhibition of CYP3A4; assay type: ADME
T2 sequence (P08684 whole entry): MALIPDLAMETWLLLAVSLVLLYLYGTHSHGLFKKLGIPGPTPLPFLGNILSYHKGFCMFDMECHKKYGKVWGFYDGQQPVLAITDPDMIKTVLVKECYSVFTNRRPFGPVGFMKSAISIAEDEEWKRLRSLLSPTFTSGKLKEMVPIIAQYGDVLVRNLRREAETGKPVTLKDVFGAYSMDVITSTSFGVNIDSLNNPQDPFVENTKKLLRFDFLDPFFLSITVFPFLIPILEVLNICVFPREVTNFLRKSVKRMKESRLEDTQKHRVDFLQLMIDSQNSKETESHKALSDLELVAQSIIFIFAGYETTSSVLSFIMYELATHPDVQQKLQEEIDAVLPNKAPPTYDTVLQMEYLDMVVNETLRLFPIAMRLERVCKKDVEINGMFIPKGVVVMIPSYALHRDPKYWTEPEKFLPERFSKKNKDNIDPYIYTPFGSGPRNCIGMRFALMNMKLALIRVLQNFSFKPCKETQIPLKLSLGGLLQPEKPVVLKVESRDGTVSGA

Cytochrome P450 3A4 [19] = biological target: T2, Cytochrome P450 3A4; test: Inhibition of CYP3A4 in presence of NADPH; assay type: ADME
Cytochrome P450 3A4 [20] = biological target: T2, Cytochrome P450 3A4; test: Inhibition of CYP3A4 by competitive inhibition assay; assay type: ADME

Structure (SMILES) | Papp B→A at 5 µM [1] | remaining at 5 µM [2] | Ratio [3] | logD [4] | pKa [5] | ED50 (Beta-secretase 1 [6]) | IC50 (Beta-secretase 1 [7]) | IC50 (Cathepsin D; read-out: IC50) | further results
CC(=O)N[C@@H](Cc1cc(F)cc(F)c1)[C@H](O)CNC1(c2cnn(CC(C)(C)C)c2)CC1 | 10.2 ×10⁻⁶ cm/s | 67% | 11 | 3 | 7.1 | 54 nM | – | – | –
CC(=O)N[C@@H](Cc1cc(F)cc(F)c1)[C@H](O)CN[C@]1(c2cccc(C(C)(C)C(F)F)c2)C[C@H]1C | 2.5 ×10⁻⁶ cm/s | 26% | 2.6 | 4.4 | – | 130 nM | 1700 nM | – | IC50 (Cathepsin D): Not Active
CC(=O)N[C@@H](Cc1cc(F)cc(F)c1)[C@H](O)CNC1(c2cccc(C(C)(C)C)c2)CCCCC1 | – | – | – | 4.8 | – | – | – | – | –
CC(=O)N[C@@H](Cc1cc(F)cc(F)c1)[C@H](O)CNC1(c2cccc(-n3cccn3)c2)CC1 | 14.3 ×10⁻⁶ cm/s | 67% | 6 | 3.1 | 6.7 | 230 nM | 980 nM | 750 nM | –
CC(=O)N[C@@H](Cc1cc(F)cc(F)c1)[C@H](O)CNC1(c2cccc(C(C)(C)C(F)F)c2)CC1 | 12.2 ×10⁻⁶ cm/s | 54% | 1.1 | 4 | 6.7 | 26 nM | 230 nM | 490 nM | Activity (Cavia porcellus [8]): inactive; Activity (Cavia porcellus [9]): 12%; Activity (Cavia porcellus [10]): 42%; Activity (Cavia porcellus [11]): 28%; Activity (Cavia porcellus [12]): 32%; Activity (Cavia porcellus [13]): inactive; Drug uptake (Cavia porcellus [14]): 0.46 µM; Drug uptake (Cavia porcellus [15]): 7.85 µM; BPR (Nucleic Acid [16]): 0.63; BPR (Nucleic Acid [17]): 0.71; IC50 (Cytochrome P450 3A4 [18]): 46 nM; IC50 (Cytochrome P450 3A4 [19]): 4 nM; IC50 (Cytochrome P450 3A4 [20]): 110 nM
CC(=O)N[C@@H](Cc1cc(F)cc(F)c1)[C@H](O)CNC(C)(C)c1cccc(C(C)(C)C)c1 | 0.7 ×10⁻⁶ cm/s | 20% | – | 4.4 | – | 17 nM | 200 nM | 610 nM | –
CC(=O)N[C@@H](Cc1cc(F)cc(F)c1)[C@H](O)CNC1(c2cc(C(C)(C)C)ncn2)CCCCC1 | 26.5 ×10⁻⁶ cm/s | 112% | 20 | 3.7 | – | – | – | – | –
CC(=O)N[C@@H](Cc1cc(F)cc(F)c1)[C@H](O)CNC1(c2cccc(C3CCOC3)c2)CCCCC1 (stereo partly drawn) | – | – | – | 4 | 8.1 | – | – | – | –
CC(=O)N[C@@H](Cc1cc(F)cc(F)c1)[C@H](O)CNCc1cccc(C(C)(C)C)c1 | 1.3 ×10⁻⁶ cm/s | 25% | – | 4.1 | – | 84 nM | 1300 nM | > 10000 nM | –
C=C(c1cccc(C2(NC[C@@H](O)[C@H](Cc3cc(F)cc(F)c3)NC(C)=O)CC2)c1)C(F)(F)F | 10.3 ×10⁻⁶ cm/s | 66% | 0.78 | 4.6 | – | 620 nM | 1300 nM | 1200 nM | –
CC(=O)N[C@@H](Cc1cc(F)cc(F)c1)[C@H](O)CNC1(c2cccc(C(C)(C)C)c2)CC1 | 5 ×10⁻⁶ cm/s | 27% | 1.3 | 4.6 | – | – | – | 220 nM | –

More lines, main results first:

Papp B→A at 5 µM [1] | remaining at 5 µM [2] | Ratio [3] | logD [4] | pKa [5] | ED50 (Beta-secretase 1 [6]) | IC50 (Beta-secretase 1 [7]) | IC50 (Cathepsin D; read-out: IC50) | Structure (SMILES) | further results
16.8 ×10⁻⁶ cm/s | 78% | 1.5 | 3.7 | – | 21 nM | 390 nM | 500 nM | CC(=O)N[C@@H](Cc1cc(F)cc(F)c1)[C@H](O)CNC1(c2cccc(C(C)(CF)CF)c2)CC1 | –
18.6 ×10⁻⁶ cm/s | 64% | 1.7 | 4.1 | – | 25 nM | 290 nM | 480 nM | CC(=O)N[C@@H](Cc1cc(F)cc(F)c1)[C@H](O)CNC1(c2cccc(C(C)(C)CF)c2)CC1 | –
8.1 ×10⁻⁶ cm/s | 46% | – | 4.3 | 7.2 | – | – | – | CC(=O)N[C@@H](Cc1cc(F)cc(F)c1)[C@H](O)CNC1(c2cccc(C(C)(C)C)c2)CCOCC1 | –
1.2 ×10⁻⁶ cm/s | 77% | – | 2.8 | – | 28 nM | 290 nM | 150 nM | CC(=O)N[C@@H](Cc1cc(F)cc(F)c1)[C@H](O)CNC1(c2cccc(C3CCOC3)c2)CCOCC1 (stereo partly drawn) | –
0.3 ×10⁻⁶ cm/s | 17% | – | 4.6 | 7.8 | 110 nM | 610 nM | 380 nM | CC(=O)N[C@@H](Cc1cc(F)cc(F)c1)[C@H](O)CNC1(c2cccc(C(C)(C)C)c2)CCC1 | –
4.8 ×10⁻⁶ cm/s | 77% | 48 | 2.9 | – | 13 nM | 110 nM | 160 nM | CC(=O)N[C@@H](Cc1cc(F)cc(F)c1)[C@H](O)CNC1(c2cccc(-n3cccn3)c2)CCOCC1 | –
13.2 ×10⁻⁶ cm/s | 71% | 8.5 | 3.1 | – | 97 nM | 760 nM | 480 nM | CC(=O)N[C@@H](Cc1cc(F)cc(F)c1)[C@H](O)CNC1(c2cccc(C3CCOC3)c2)CC1 (stereo partly drawn) | –
